The nature of data set [1]: refreshing effect in a tobacco flavouring composition. The class given is in vivo. Conditions: approximately 0.05 g per kilogram of tobacco. From the text:
Approximately 0.05 g of (−)-(1R,3R,4S)-3-hydroxy-p-menthane-3-[…] is used per kilogram of tobacco.

The conditions of data set [2]: cited from earlier work; for refreshing effect: prior art.
Data set [3] in a line: refreshing effect in boiled sweets. The class given is in vivo. The settings on record: 0.2 g per kilogramme of final product. As to the method: A solution of saccharose (350 g) in water (110 g) is prepared which is boiled at 107° C. 150 g of glucose syrup is added and boiled at 148° C. The flavouring, citric acid and colouring agent are added at a temperature of approximately 120°, and 0.2 g of (−)-(1R,3R,4S)-3-hydroxy-p-menthane-3-methanol is added per kilogramme of final product.

Data set [4] in a line: refreshing effect in a mouthwash flavouring composition. Conditions: approximately 0.2 g per litre of prepared mouthwash. The format is in vivo. From the text:
Approximately 0.2 g of (−)-(1R,3R,4S)-3-hydroxy-p-menthane-3-methanol is used per litre of prepared mouthwash.

Data set [5] is described as follows: hydrophilic nature of the compound. The format is physicochemical.
Data set [6] in a line: organoleptic evaluation of the compounds: refreshing effect, bitterness, odour. The format is in vivo. Conditions: sensation of freshness, intensity in words.
For data set [7] the following is noted: prior art; cited from earlier work.

SMILES strings stand for the structures. Read-outs that look alike come from different tables or passages of the source.

The term melting point denotes the temperature, or range, at which the solid turns liquid. Compound `CC(C)[C@@H]1CC[C@@H](C)C[C@@]1(O)CCO` [1a, (−)-(1R,3R,4S)-3-hydroxy-p-menthane-3-ethanol] came in with a melting point of 80 to 82 °C. The refreshing effect result in data set [1] was “A refreshing effect is obtained”.

Turning to `CC(C)[C@@H]1CC[C@@H](C)C[C@]1(O)CCO` [1b, (−)-(1R,3S,4S)-3-hydroxy-p-menthane-3-ethanol], the melting point was 84 to 86 °C.

As for `CNC(=O)C(C)(C(C)C)C(C)C` [2-isopropyl-N,2,3-trimethylbutyramide], the refreshing effect result in data set [2] is reported as “very active”.

The compound `CC(C)[C@@H]1CC[C@@H](C)C[C@]1(O)CO` [2a, (−)-(1R,3R,4S)3-hydroxy-p-menthane-3-methanol] returned a melting point of 80 to 82 °C. Further, in data set [3], the refreshing effect result is listed as “A very distinct refreshing effect is obtained”. For the same compound, in data set [4], the refreshing effect entry was “A refreshing effect is obtained”.

`CC(C)[C@@H]1CC[C@@H](C)C[C@@]1(O)CO` [2b, (−)-(1R,3S,4S)-3-hydroxy-p-menthane-3-methanol] displayed a melting point of 48 to 50 °C.

Consider `CC1=C(N2CCCC2)C(=O)OC1` [4-methyl-3-(1-pyrrolidinyl)-2[5H]furanone], for which, in data set [2], the refreshing effect entry was “very intense refreshing effect”.

As for `CC(C)[C@@H]1CC[C@@H](C)C[C@]1(O)C(O)CO` (stereo partly drawn) [compound 3, (1R,3R,4S)-3-hydroxy-p-menthane-3-(ethane-1,2-diol)], in data set [5], the hydrophilic nature result is “hydrophilic”. For the same compound, the refreshing effect entry in data set [6] is “intense”.

For `CC(C)[C@@H]1CC[C@@H](C)C[C@@]1(O)C(C)CO` (some centres unmarked) [compound 4], the refreshing effect entry in data set [6] is “reduced intensity”.

With `CC(O)C[C@]1(O)C[C@H](C)CC[C@H]1C(C)C` (some centres unmarked) [compound 5], the refreshing effect result in data set [6] is listed as “reduced intensity”.

`CC(C)[C@@H]1CC[C@@H](C)C[C@@]1(O)CC(C)(C)O` [compound 6]: the refreshing effect result in data set [6] is given as “reduced intensity”.

Turning to `CC(C)[C@@H]1CC[C@@H](C)C[C@]1(CO)OCCO` [compound 11], the refreshing effect result in data set [6] is “not endowed with a particularly intense refreshing effect”.

On to `CC(C)[C@@H]1CC[C@@H](C)C[C@H]1O` [l-menthol], for which the burning sensation entry in data set [2] (when used at a high concentration) was “can cause a burning sensation”. In addition, the volatility result in data set [7] is given as “too high volatility”.

The record behind these values is patent publication US7816566B2, “p-Menthan-3-ol alkylated derivatives and their use as refreshing agents” (Robertet S.A., priority 2004, dated 2010).
